From article PMC12635197, “Discovery of first-in-class inhibitors of the TRF1:TIN2 protein:protein interaction by fragment screening” (Scientific Reports, 2025)
Where no end group is shown, it is not given here. FAM = 5(6)-carboxyfluorescein

What was measured:
[1] = biological target: TIN2 TBM (Homo sapiens) (UniProt Q9BSI4); conditions: cited from earlier work
[2] = biological target: T1, TRF1TRFH (Homo sapiens, UniProt P54274); assay: LO-NMR CPMG assay (relaxation-edited), singletons; type: binding; conditions: single experiment; for CPMG reduction: average peak intensity reduction on addition of TRF1TRFH, 250 µM ligand, 20 µM protein; for CPMG recovery: net recovery of peak intensity on addition of TIN2TBM peptide (40 µM) to compound plus protein
T1 construct: encoding residues 47–268, UniProt identifier P54274-1; His6-MBP (TEV-cleavable) (N, cleaved yes); made in house; host or cells: E. coli BL21-CodonPlus(DE3)-RIL
T1 sequence (P54274 47-268): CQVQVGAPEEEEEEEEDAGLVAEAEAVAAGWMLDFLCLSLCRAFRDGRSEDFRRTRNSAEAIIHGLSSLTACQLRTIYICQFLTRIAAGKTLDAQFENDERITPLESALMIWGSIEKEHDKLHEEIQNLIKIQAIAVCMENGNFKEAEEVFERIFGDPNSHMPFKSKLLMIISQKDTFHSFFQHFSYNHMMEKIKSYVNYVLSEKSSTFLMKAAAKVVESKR
Method: We next used a LO-NMR CPMG assay to orthogonally validate XChem hits in solution, aiming to eliminate false positives and rank hit matter for follow-up studies. Compounds were tested as singletons and prepared in two samples containing either compound alone (sample 1) or compound + TRF1TRFH (sample 2).
The fragment screen by LO-NMR was carried out using conditions described previously, with some modifications. Fragments were dispensed in triplicate into a 384-well plate using an Echo 550 liquid handler to give a final ligand concentration of 250 µM (total sample volume of 40 µL). 40 µL of TRF1TRFH protein (in NMR buffer; 20 µM final protein concentration in the assay) were added to the ‘protein’ samples; 40 µL of TRF1TRFH protein and TIN2TBM peptide (21-mer, Ac-[…]-CONH2; 40 µM final concentration in the assay) were both added to the ‘competitor’ samples; 40 µL NMR buffer were added to the ‘compound-only’ samples. Solutions were transferred to 1.7-mm NMR tubes using a Bruker SamplePro Tube robotics system. ^1H NMR spectra were recorded on a Bruker AVIII 500 MHz spectrometer at 298 K, equipped with a 1.7-mm TXI probe, with samples in 1.7-mm SampleJET NMR tubes (Bruker). DMSO and water signals were dampened. A relaxation spin filter was applied at 400 ms. Data were processed using Bruker Topspin 4.0. Lines were broadened with LB = 3.0, and the baseline was corrected between 6.0 and 10.0 ppm.
The data were then analysed using the MNova Screen software. Only peaks between 5.5 and 9.5 ppm were considered. Peaks with a height of < 5% maximum peak height within the region of interest were considered noise, and the minimum matched peak level was set at > 51%. The relative peak intensity change (I) was calculated for all peaks in the 5.5–9.5 ppm region, for each compound, as described previously. The average integral for all peaks between 6.0 and 10.0 ppm was calculated, and the differences between compound-only, compound-plus-protein, and compound-plus-protein-plus-competitor samples were compared. The net recovery was calculated by subtracting the reduction in peak integral of the compound-plus-protein samples from the compound-plus-protein-plus-competitor samples.
For hit validation, relaxation-edited LO-NMR experiments were repeated as described above on single compounds instead of fragment cocktails.

[3] = Fragment solubility assay (quantitative 1H NMR); type: physicochemical; conditions: Supplementary Table 1
Method: Aqueous solubility test samples were prepared by adding 3.6 µL compound (50 mM stock in 100% DMSO-d6) to 176.4 µL NMR buffer in a microcentrifuge tube. The samples were incubated overnight and transferred to a 3-mm NMR tube (Bruker, Part No. Z112272). ^1H NMR spectra were recorded, with the DMSO and water signals dampened. 1 mM caffeine (Sigma, C1778 in PBS (pH 7.4) with 1% DMSO-d6) was used as a standard to quantify the ligand signals and determine the concentration of samples.
NMR data were collected on a Bruker Avance Neo 600-MHz spectrometer equipped with a 5 mm TCI-CryoProbe. The ^1H spectrum was referenced to the internal deuterated solvent. The operating frequency for ^1H was 600 MHz. All NMR data were acquired at the temperature of 298 K. All data were acquired and processed using Bruker Topspin 4.0. The quantitative ^1H-NMR spectrum was acquired using a Bruker standard 1D lc1pngppsf2 pulse sequence with 32 scans. The sweep width was 6.2 ppm with O1P set to 8.8 ppm, and the FID contained 16k time-domain data points. Relaxation delay was set to 20 s. Water signal was suppressed.

[4] = biological target: T1, TRF1TRFH; assay: Crystal soaking of TRF1TRFH crystals; conditions: soaking into TRF1TRFH crystals; Supplementary Table 1
Excerpt: Attempts to soak TRF1TRFH crystals with the commercially available analogues of the XChem hit 5 were also unsuccessful. Only one slightly smaller analogue (22) could be soaked into TRF1TRFH crystals, albeit with an ambiguous binding mode. […] In the case of compound 5, we observed a hydrogen bond between the amino group of the fragment and a backbone carbonyl in the neighbouring protein chain (Fig. 2i). […] Additionally, the pocket normally occupied by the conserved phenylalanine residue of the TIN2 F-X-L-X-P motif was fully obstructed by a crystal contact with a TRF1TRFH copy in an adjacent asymmetric unit, further limiting the possibility of obtaining XChem hits outside of the leucine pocket.
TRF1TRFH crystals in the P3_121 space group were grown by sitting drop vapour diffusion in SWISSCI 3-drop plates using similar crystallisation conditions to those described previously. The total drop volume was 300 nL, consisting of 150 nL of TRF1TRFH (31.2 mg/mL) and 150 nL of reservoir solution (1% PEG8000, 100 mM MES pH 6.0, 1–12 mM Mg(OAc)2, 10–15% glycerol), whilst the reservoir volume was 35 µL. Crystallisation plates were set up using an SPT Labtech mosquito Xtal2 liquid handler. Cuboid-shaped crystals grew to their maximum size (300 μm across) within 24 h. Crystals were cryoprotected through the addition of 180 nL of 40% glycerol to the crystal drop prior to harvesting, giving a final glycerol concentration of […] (accounting for the glycerol already in the crystallisation conditions). The crystals were then flash-frozen in liquid nitrogen, and data were collected at the Diamond Light Source beamlines I04 and I04-1 and processed automatically using the Xia2 Dials pipeline[53],[54]. The TRF1TRFH structure was solved by molecular replacement in Phaser MR[55] within CCP4[56] using the previously published TRF1TRFH structure as a search model (PDB: 1H6O)[31], after having first stripped the search model of solvent molecules and ligands. Structure refinement was done using Refmac[57] and Buster[36], and model correction and building was done using Coot 0.9.6[35].
The DSi-Poised library (768 fragment, Enamine)[32], the EUbOPEN DSiP extension library (108 fragments) and the FragLite library (31 fragments)[33] were screened against TRF1TRFH crystals. Compounds at 500 mM in DMSO stocks were dispensed into selected crystal drops as singletons using an Echo 550 liquid handler to give a final concentration of 50 mM (10% DMSO final concentration). After incubation for 1 h at 20 °C, 180 nL of glycerol (40% stock, final drop concentration 28.8–32.5%) were added to each drop immediately prior to crystal harvesting and flash-freezing in liquid nitrogen.
Data were collected on the I04-1 beamline at Diamond Light Source. […]

[5] = biological target: T2, (StrepII)2-TEV-tagged TIN2, subunit of recombinant shelterin (UniProt Q9BSI4-1 1-451); assay: mass photometry; SEC-purified shelterin without compound; complex of around 700 kDa; 50 mM HEPES-NaOH pH 8.0, 300 mM NaCl; conditions: both partners purified
T2 construct: TIN2, gene NM_001099274.1, codon-optimised; a TEV site lies between tag and protein; The separately made control protein is called TIN2L; The discussion says that the complex carries a short peptidic tag on TIN2; source: Sf9, co-expressed with the other shelterin subunits (MultiBac baculovirus), purified (StrepTrap, serial SEC)
T2 sequence (looked up): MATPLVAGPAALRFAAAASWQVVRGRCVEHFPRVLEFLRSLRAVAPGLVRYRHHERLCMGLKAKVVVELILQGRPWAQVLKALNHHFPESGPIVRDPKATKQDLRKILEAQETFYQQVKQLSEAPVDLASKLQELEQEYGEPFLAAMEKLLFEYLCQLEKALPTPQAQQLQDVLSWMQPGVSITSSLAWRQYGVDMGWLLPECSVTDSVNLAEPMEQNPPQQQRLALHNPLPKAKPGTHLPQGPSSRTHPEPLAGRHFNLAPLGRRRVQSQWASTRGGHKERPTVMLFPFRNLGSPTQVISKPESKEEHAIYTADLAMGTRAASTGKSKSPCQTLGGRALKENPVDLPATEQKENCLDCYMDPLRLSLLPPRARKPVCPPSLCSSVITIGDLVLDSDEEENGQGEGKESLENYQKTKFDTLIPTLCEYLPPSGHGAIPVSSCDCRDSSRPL

[6] = biological target: T3, TRF1 (telomeric repeat-binding factor 1), full length, subunit of recombinant shelterin (human), P54274; assay: mass photometry; SEC-purified shelterin 1.25 µM incubated 1 h at room temperature with 100-300 µM compound 40, cross-linked with 0.1% glutaraldehyde, diluted to 50 nM; conditions: remark: other sources report otherwise
T3 chain: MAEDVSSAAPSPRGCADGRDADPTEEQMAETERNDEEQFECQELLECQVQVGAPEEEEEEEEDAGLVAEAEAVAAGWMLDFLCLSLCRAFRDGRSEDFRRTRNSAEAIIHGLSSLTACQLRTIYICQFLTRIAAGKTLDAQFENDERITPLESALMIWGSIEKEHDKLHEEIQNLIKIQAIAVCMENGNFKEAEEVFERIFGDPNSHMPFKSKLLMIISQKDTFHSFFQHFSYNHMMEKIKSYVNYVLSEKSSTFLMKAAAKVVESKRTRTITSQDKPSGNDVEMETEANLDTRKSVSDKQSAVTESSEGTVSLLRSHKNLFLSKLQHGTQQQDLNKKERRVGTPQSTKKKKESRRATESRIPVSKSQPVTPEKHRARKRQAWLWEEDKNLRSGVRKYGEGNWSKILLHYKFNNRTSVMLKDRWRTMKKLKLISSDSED

[7] = biological target: T4, TRFH domain of TRF1 (TRF1_(TRFH)), residues 47–268 (human, UniProt P54274-1 47-268); assay: fluorescence polarisation; direct titration: TRF1_(TRFH) 20 to 0.02 µM (11 points) against 25 nM TIN2-FAM; 25 mM HEPES-NaOH pH 7.5, 100 mM NaCl, 1 mM TCEP, 0.05% w/v CHAPS; 1 h at room temperature; conditions: both partners purified
T4 construct: cDNA codon-optimised for E. coli; also called TRF homology (TRFH) domain; source: E. coli BL21-CodonPlus(DE3)-RIL, purified (HisTrap, TEV cleavage, second HisTrap, Superdex 200 SEC); not shown: His6, N-terminal, cleaved; MBP, N-terminal, cleaved
T4 sequence (looked up): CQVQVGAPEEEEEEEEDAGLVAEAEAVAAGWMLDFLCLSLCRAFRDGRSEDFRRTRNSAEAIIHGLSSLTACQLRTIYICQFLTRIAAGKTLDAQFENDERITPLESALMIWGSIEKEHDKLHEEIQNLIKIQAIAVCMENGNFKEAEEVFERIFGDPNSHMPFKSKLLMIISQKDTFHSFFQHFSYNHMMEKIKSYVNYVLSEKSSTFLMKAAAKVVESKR

[8] = biological target: T4, TRFH domain of TRF1 (TRF1_(TRFH)), …; assay: ligand-observed NMR (CPMG / R2 relaxation) competition; fragment 250 µM with 20 µM TRF1_(TRFH), with or without 40 µM TIN2TBM peptide as competitor; NMR buffer; 298 K; conditions: both partners purified

Q: For TRF1 TRFH (from UniProt P54274), which Kd [1] is on record?
A: 300 nM

Q: For `COc1ccc2sc(C)nc2c1` [Compound 22], which CPMG reduction [2] is on record?
A: 18%

Q: What about the CPMG recovery [2] of the same molecule?
A: 9%

Q: And the “Aq. Sol.” value [3]?
A: 790 µM

Q: And the Crystal structure [4]?
A: Yes

Q: With `COc1ccc2sc(N)nc2c1` [Compound 20] as the molecule, how does the CPMG reduction [2] read?
A: 25%

Q: What about the CPMG recovery [2] of the same molecule?
A: 0%

Q: What about the “Aq. Sol.” value [3] of the same molecule?
A: 580 µM

Q: What about the Crystal structure [4] of the same molecule?
A: Yes

Q: What does the source list for `COc1cc2nc(N)sc2cc1OC` [Compound 21]?
A: CPMG reduction [2]: 14%; CPMG recovery [2]: 12%; Aq. Sol. [3]: 190 µM; Crystal structure [4]: No

B1: TRF1 (telomeric repeat-binding factor 1), full length, subunit of recombinant shelterin (natural protein, human, UniProt P54274-1 1-439, looked up)
chain: MAEDVSSAAPSPRGCADGRDADPTEEQMAETERNDEEQFECQELLECQVQVGAPEEEEEEEEDAGLVAEAEAVAAGWMLDFLCLSLCRAFRDGRSEDFRRTRNSAEAIIHGLSSLTACQLRTIYICQFLTRIAAGKTLDAQFENDERITPLESALMIWGSIEKEHDKLHEEIQNLIKIQAIAVCMENGNFKEAEEVFERIFGDPNSHMPFKSKLLMIISQKDTFHSFFQHFSYNHMMEKIKSYVNYVLSEKSSTFLMKAAAKVVESKRTRTITSQDKPSGNDVEMETEANLDTRKSVSDKQSAVTESSEGTVSLLRSHKNLFLSKLQHGTQQQDLNKKERRVGTPQSTKKKKESRRATESRIPVSKSQPVTPEKHRARKRQAWLWEEDKNLRSGVRKYGEGNWSKILLHYKFNNRTSVMLKDRWRTMKKLKLISSDSED
notes: TRF1, gene NM_017489.2, codon-optimised; the UniProt identifier is printed for the TRFH construct of the same protein; Further details of the shelterin construct 'to be reported elsewhere'; also called full-length TRF1
Q: For B1, which “stoichiometry N” value [5] is on record?
A: 2 TRF1 per TIN2

Q: What about the stoichiometry N [6] of the same molecule?
A: 2

Q: For {FAM}-RHFNLAPLGRRRVQSQWASTR [TIN2TBM peptide labelled with an N-terminal 5(6)-carboxyfluorescein (TIN2-FAM)], which Kd [7] is on record?
A: 400 nM

B2: TIN2TBM peptide (21-mer, Ac-RHFNLAPLGRRRVQSQWASTR-CONH2) (peptide)
peptide: Ac-RHFNLAPLGRRRVQSQWASTR-NH2
notes: limits worked out from L260 of the F-X-L-X-P motif
Q: Does B2 bind [8]?
A: binds
